The subject of data set [1] is homoplasmic tobacco plants of the line 38773-6. Kind of data set: Whole plant glyphosate spray tolerance, line 38773-6. In kind it is in vivo. The protocol:
Homoplasmic tobacco plants of the line 38773-6 are sprayed with glyphosate using a track sprayer at concentrations corresponding to 0 oz/acre, 16 oz/acre, 32 oz/acre and 64 oz/acre to test for whole plant tolerance. Plant height was measured before and after spraying with glyphosate. The vegetative injury data was collected two weeks after spraying, while the reproductive injury data was collected at plant maturity.
Tolerance is characterized by the continued growth and greening of tissues sprayed with glyphosate. However, as the concentration of glyphosate applied increased, there was a corresponding increase in the level of vegetative injury.

Data set [2] deals with homoplasmic tobacco line 38773-6. Description: In vitro glyphosate tolerance, shoot regeneration from leaf explants, line 38773-6. In kind it is cell-based. Particulars: tobacco plants expressing EPSPS in plastids (pMON38773). The protocol:
A transplastomic tobacco line homoplasmic for the construct pMON38773 was tested in vitro to determine the highest level of glyphosate tolerance. Explant tissue was prepared from leaf pieces of nontransgenic wild type tobacco control, Havanna, plants and the homoplasmic tobacco line 38773-6 and cultured for regeneration of shoots on TSO medium (described above) supplemented with glyphosate levels of 50 μM, 75 μM, 100 μM, 150 μM and 200 μM. The number of explants producing shoots was determined at 3 weeks and 6 weeks after explant preparation and culturing on glyphosate containing medium.

For data set [3], the system named is Wild type tobacco (nontransformed control plants). Description: Whole plant glyphosate spray tolerance, wild type. In kind it is in vivo. The note with it: concentrations as low as 16 oz/Acre.
The next data set concerns Nb2 cell line. Description: Nb2 cell proliferation bioactivity assay. In kind it is cell-based, rat. The note with it: 48 hrs incubation, MTS absorbance. The protocol:
Bioactivity of the pH adjusted and centrifuged extract was tested using cells from an Nb2 cell line. These cells proliferate in the presence of growth hormone and other […] type compounds. The assay involves putting various concentrations of growth hormone-containing extract into a 96 well plate. Then a constant amount of cells are added to each well. The plate is incubated for 48 hrs and then a reagent called MTS is added. Metabolizing cells take up the MTS and convert it to a blue colored substance. The more cells there are the more blue color in the well. The blue color is measured using a spectrophotometer. The number of cells should be proportional to the concentration of growth hormone in the media. At some high concentration one expects that the cells will become saturated with growth hormone and that the dose response will level off. At very low hGH concentrations essentially no enhanced growth is seen.
To test this hypothesis in vitro, a rat lymphoma cell line, Nb2, that proliferates in the presence of somatotropin (hGH) and other […] type compounds was employed. Proliferation of this cell line is proportional to the amount of somatotropin in the culture medium, until saturation is reached. The ion exchange column eluate from transplastomic Nt-4838 and Nt-38794 plants or identically treated wild-type plants was added to the Nb2 cell culture medium. As control, E. coli produced, refolded hGH was used.

For data set [4] the following is noted: in vivo; cited from earlier work.

For the molecule `O=C(O)CNCP(=O)(O)O` [Glyphosate, N-phosphonomethylglycine], in data set [1] (homoplasmic tobacco lines, initial results, vegetative tissue injury), the “glyphosate concentration tolerated, whole plant spray” value came to 16 oz/acre. Besides, in data set [1] (subsequent experiments with additional transformed lines), the “glyphosate level tolerated, whole plant spray” value is listed as 64 oz/Acre. For the same molecule, in data set [1] (transplastomic lines), the “glyphosate level with a good level of tolerance, whole plant spray” value turned out to be 32 oz/Acre. The “glyphosate level tolerated (shoot regeneration)” value in data set [2] is on record as “at least 200 μM”. In addition, in data set [3], the “susceptibility to glyphosate spray” value was “highly susceptible”.

For the molecule “alanine-hST: hGH with alanine N-terminus, from Nt4838 extracts, methionine removed by aminopeptidase”, the “proliferation of the Nb2 cell line (bioactivity)” value in the data set on Nb2 cell line is “also bioactive”.

Take “chloroplast derived hGH: human growth hormone expressed in tobacco plastids”: the “proliferation of the Nb2 cell line (bioactivity)” value is “biologically active” in the data set on Nb2 cell line and “sigmoidal shape when graphed as absorbance versus hGH concentration” in the data set on Nb2 cell line (listed as hGH expressed from a plant plastid).

Regarding “recombinant somatotropin: recombinant somatotropin produced in E. coli, N-terminal methionine or phenylalanine (Moore et al. 1988)”, the pharmacokinetics entry in data set [4] is reported as “equivalent pharmacokinetics”.

Values taken from US7259293B2, “Expression of eukaryotic peptides in plant plastids” (priority 1998, dated 2007).
